Consider four compounds from article PMC8229775, “β-Thujaplicin Enhances TRAIL-Induced Apoptosis via the Dual Effects of XIAP Inhibition and Degradation in NCI-H460 Human Lung Cancer Cells” (Medicines, 2021).

The term IC50 denotes the concentration that inhibits the measured activity by half.

For this experiment, the target named is T1, X-linked inhibitor of apoptosis protein (XIAP) (Homo sapiens, UniProt P98170).
T1 construct: GST-tagged XIAP-BIR3 domain
T1 sequence (P98170 241-356 limits assumed): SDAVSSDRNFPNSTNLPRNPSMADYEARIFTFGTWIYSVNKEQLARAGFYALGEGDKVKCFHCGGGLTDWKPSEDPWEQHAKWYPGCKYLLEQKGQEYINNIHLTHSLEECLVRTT
The experiment is described as follows: fluorescence polarization displacement of 5-FAM Smac/Diablo peptide from recombinant BIR3. Format: binding. For orientation: Fluorescence polarisation rises when a labelled molecule tumbles more slowly, as on binding a larger partner.
On to `CCCCCCCCCCCC1=C(O)C(=O)C=C(O)C1=O` [Embelin], for which the IC50 came to 3.1 ± 0.6 µM.
With `O=c1cccccc1O` [Tropolone], the concentration for half-maximal inhibition (IC50) turned out to be 83.1 ± 6.9 µM.
In the case of `CC(C)c1cccc(=O)c(O)c1` [β-thujaplicin], the IC50 turned out to be 58.5 ± 2.8 µM.
The value for `CC(C)c1ccc(O)c(=O)cc1` [γ-thujaplicin] was 56.2 ± 2.9 µM.
